Results as given in ChEMBL document CHEMBL1201862, “PubChem BioAssay data set” (2004).
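Results reflect a 48-hour exposure of cells in 96-well plates to compound at five concentrations. Here, GI50 denotes the concentration required for 50% inhibition of growth.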 Active and inactive are the calls of the source. Cut-off read from the data, not from the text of the source: active = GI50 up to about 1.1 µM and inactive = higher. Where a SMILES comes first, the peptide text is derived from it. Non-standard residues stand in square brackets, D forms with d. Residues, ends and D or L forms follow the SMILES beside them. The star is where a group is joined. *: point of attachment. Bn2Val = CC(C)[C@@H](C(=O)*)N(Cc1ccccc1)Cc1ccccc1; NMeV = CN[C@H](C(=O)O)C(C)C; X32 = COc1ccc(CN*)c(OC)c1; dNMeA = CN[C@H](C)C(=O)O; Cbz = O=C(OCc1ccccc1)*

How the values were obtained:
Test in all cases: NCI anticancer screen, dose series, 48 h
OVCAR-5 = test system: OVCAR-5
SF-539 = test system: SF-539
SF-295 = test system: SF-295
UO-31 = test system: UO-31
A498 = test system: A498
HOP-62 = test system: HOP-62
CAKI-1 = test system: CAKI-1
T47D = test system: T47D
ACHN = test system: ACHN
HL-60 = test system: HL-60
K562 = test system: K562
UACC-62 = test system: UACC-62
PC-3 = test system: PC-3
NCI-H522 = test system: NCI-H522
Hs-578T = test system: Hs-578T
MDA-MB-231 = test system: MDA-MB-231
KM12 = test system: KM12
DU-145 = test system: DU-145
SN12C = test system: SN12C
UACC-257 = test system: UACC-257

Structure (SMILES) | GI50 (OVCAR-5) | GI50 (SF-539) | GI50 (SF-295) | GI50 (UO-31) | GI50 (A498) | GI50 (HOP-62) | GI50 (CAKI-1) | GI50 (T47D) | GI50 (ACHN) | GI50 (HL-60) | GI50 (K562) | GI50 (UACC-62) | GI50 (PC-3) | GI50 (NCI-H522) | GI50 (Hs-578T) | GI50 (MDA-MB-231) | GI50 (KM12) | GI50 (DU-145) | GI50 (SN12C) | GI50 (UACC-257)
CCOc1ccc2nc3nc(O)nc(C)c3c(NCCCN(CC)CC)c2c1 | > 100 µM (inactive) | > 100 µM (inactive) | > 100 µM (inactive) | > 100 µM (inactive) | > 100 µM (inactive) | > 100 µM (inactive) | > 100 µM (inactive) | > 100 µM (inactive) | > 100 µM (inactive) | > 100 µM (inactive) | > 100 µM (inactive) | > 100 µM (inactive) | > 100 µM (inactive) | > 100 µM (inactive) | > 100 µM (inactive) | > 100 µM (inactive) | > 100 µM (inactive) | > 100 µM (inactive) | > 100 µM (inactive) | > 100 µM (inactive)
COc1ccc(/C=C(\Cl)c2ccc(OC)c(OC)c2)cc1OC | > 100 µM (inactive) | > 100 µM (inactive) | > 91.8 µM (inactive) | > 100 µM (inactive) | > 43.5 µM (inactive) | > 82.8 µM (inactive) | > 100 µM (inactive) | > 100 µM (inactive) | > 100 µM (inactive) | > 100 µM (inactive) | > 100 µM (inactive) | > 100 µM (inactive) | > 100 µM (inactive) | 22.9 µM (inactive) | > 100 µM (inactive) | > 100 µM (inactive) | > 100 µM (inactive) | > 100 µM (inactive) | > 100 µM (inactive) | > 100 µM (inactive)
Nc1ccc(C(=O)CC(N)C(=O)O)cc1O (stereo not given) | > 100 µM (inactive) | > 100 µM (inactive) | > 100 µM (inactive) | > 100 µM (inactive) | > 100 µM (inactive) | > 100 µM (inactive) | > 100 µM (inactive) | > 100 µM (inactive) | > 100 µM (inactive) | > 100 µM (inactive) | > 100 µM (inactive) | > 100 µM (inactive) | > 100 µM (inactive) | > 100 µM (inactive) | > 100 µM (inactive) | > 100 µM (inactive) | > 100 µM (inactive) | > 100 µM (inactive) | > 100 µM (inactive) | > 100 µM (inactive)
C=C(c1ccccc1)C1ON(C)CCc2cc(OC)c(OC)cc21 (stereo not given) | > 100 µM (inactive) | > 100 µM (inactive) | 58.9 µM (inactive) | 81.5 µM (inactive) | > 100 µM (inactive) | > 100 µM (inactive) | > 100 µM (inactive) | 37 µM (inactive) | 84.7 µM (inactive) | > 100 µM (inactive) | 58.7 µM (inactive) | > 100 µM (inactive) | > 100 µM (inactive) | 56.4 µM (inactive) | 18.3 µM (inactive) | 53.6 µM (inactive) | > 100 µM (inactive) | > 100 µM (inactive) | > 100 µM (inactive) | 42.3 µM (inactive)
CC(=O)O[C@H]1C(=O)O[C@@H]2C[C@H]3C(C)=CC(=O)[C@@H](O)[C@]3(C)[C@H]3[C@@]4(O)OC[C@]32[C@@H]1[C@@H](C)[C@H]4O | 0.348 µM (active) | 0.0246 µM (active) | 0.0535 µM (active) | 0.53 µM (active) | 0.103 µM (active) | 0.0498 µM (active) | 0.265 µM (active) | 0.0228 µM (active) | 0.0317 µM (active) | 0.0229 µM (active) | 0.0266 µM (active) | 0.0434 µM (active) | 0.02 µM (active) | 0.0243 µM (active) | 0.0175 µM (active) | 0.0475 µM (active) | 0.0318 µM (active) | 0.0321 µM (active) | 0.0767 µM (active) | 0.0395 µM (active)
N#Cc1nc(CCC(C(=O)O)N2C(=O)c3ccccc3C2=O)oc1N (stereo not given) | > 100 µM (inactive) | > 100 µM (inactive) | > 100 µM (inactive) | > 100 µM (inactive) | > 100 µM (inactive) | > 100 µM (inactive) | > 100 µM (inactive) | > 100 µM (inactive) | > 100 µM (inactive) | > 100 µM (inactive) | > 100 µM (inactive) | > 100 µM (inactive) | > 100 µM (inactive) | > 100 µM (inactive) | > 100 µM (inactive) | > 100 µM (inactive) | > 100 µM (inactive) | > 100 µM (inactive) | > 100 µM (inactive) | > 100 µM (inactive)
Cc1c(CNc2ccc(Cl)c(Cl)c2Cl)cnc2nc(N)nc(N)c12 | 11 µM (inactive) | 0.483 µM (active) | 0.065 µM (active) | 2.44 µM (inactive) | > 100 µM (inactive) | 1.04 µM (active) | > 100 µM (inactive) | 4.24 µM (inactive) | 0.3 µM (active) | 0.607 µM (active) | < 0.0132 µM (active) | 0.0771 µM (active) | 2.58 µM (inactive) | 4.46 µM (inactive) | 17.8 µM (inactive) | 0.891 µM (active) | 4.99 µM (inactive) | 0.294 µM (active) | 1.36 µM (inactive) | 0.236 µM (active)
CCOC(=O)CCC(NC(=O)C(Cc1ccccc1)NC(=O)OCc1ccccc1)C(=O)OCC (stereo not drawn) (Cbz-Phe-Glu(OEt)-OEt; configuration not given here) | 16.7 µM (inactive) | 20.3 µM (inactive) | 19.8 µM (inactive) | 17.4 µM (inactive) | 21.2 µM (inactive) | 18.5 µM (inactive) | 16.7 µM (inactive) | 16.2 µM (inactive) | 17.4 µM (inactive) | 20.1 µM (inactive) | 37.4 µM (inactive) | 17.9 µM (inactive) | 18.2 µM (inactive) | 15.7 µM (inactive) | 14.8 µM (inactive) | 14.9 µM (inactive) | 17 µM (inactive) | 6.58 µM (inactive) | 20.7 µM (inactive) | 16.9 µM (inactive)
O=C1C2=C(c3ccccc31)C(c1ccccc1)N1C(=O)CSC1=N2 (stereo not given) | > 85.5 µM (inactive) | > 53.7 µM (inactive) | 41.5 µM (inactive) | 34.8 µM (inactive) | > 100 µM (inactive) | 83.8 µM (inactive) | 49.8 µM (inactive) | 29.6 µM (inactive) | > 79.4 µM (inactive) | 40.1 µM (inactive) | 37.2 µM (inactive) | 37.8 µM (inactive) | 34.4 µM (inactive) | 29.4 µM (inactive) | 35.6 µM (inactive) | 44.8 µM (inactive) | > 53.6 µM (inactive) | 52.4 µM (inactive) | > 53.6 µM (inactive) | > 86.5 µM (inactive)
COc1ccc(Cn2c3ccc([N+](=O)[O-])cc3c(=O)n2Cc2ccccn2)cc1 | > 100 µM (inactive) | > 100 µM (inactive) | > 100 µM (inactive) | > 100 µM (inactive) | > 100 µM (inactive) | > 100 µM (inactive) | > 100 µM (inactive) | 18.2 µM (inactive) | 87.9 µM (inactive) | 28.9 µM (inactive) | 67 µM (inactive) | 43.9 µM (inactive) | 85.9 µM (inactive) | 66.4 µM (inactive) | > 100 µM (inactive) | > 100 µM (inactive) | 92.5 µM (inactive) | > 100 µM (inactive) | > 100 µM (inactive) | 55.1 µM (inactive)
O=C1Nc2cccc(Cl)c2/C1=C\c1c(-c2ccccc2)nc2n1CCS2 | 22.8 µM (inactive) | 17.1 µM (inactive) | 28.7 µM (inactive) | 19.1 µM (inactive) | 20.4 µM (inactive) | 25.9 µM (inactive) | 22.9 µM (inactive) | 17.5 µM (inactive) | 16.4 µM (inactive) | 16.3 µM (inactive) | 17.2 µM (inactive) | 17.9 µM (inactive) | 18.6 µM (inactive) | 30.2 µM (inactive) | 18.9 µM (inactive) | 20.7 µM (inactive) | 20.8 µM (inactive) | 19.8 µM (inactive) | 16 µM (inactive) | 21.4 µM (inactive)
CCc1nnc2sc(-c3ccc(-c4ccccc4[N+](=O)[O-])o3)nn12 | 62.2 µM (inactive) | 29.7 µM (inactive) | 32.6 µM (inactive) | 41.9 µM (inactive) | 54 µM (inactive) | 87.9 µM (inactive) | 66.4 µM (inactive) | 36.3 µM (inactive) | 62.2 µM (inactive) | 24 µM (inactive) | 27.7 µM (inactive) | 45.7 µM (inactive) | 42.9 µM (inactive) | 37.4 µM (inactive) | 54.3 µM (inactive) | 53.1 µM (inactive) | 30.8 µM (inactive) | 66.2 µM (inactive) | 53 µM (inactive) | 61.7 µM (inactive)
COc1ccc(CNC(=O)[C@@H]2CCCN2C(=O)[C@@H](C)N(C)C(=O)[C@H](C(C)C)N(C)C(=O)[C@@H](NC(=O)[C@H](C(C)C)N(Cc2ccccc2)Cc2ccccc2)C(C)C)c(OC)c1 (Bn2Val-V[NMeV][dNMeA]P-X32) | 1.59 µM (inactive) | 2.44 µM (inactive) | 3.34 µM (inactive) | 3.86 µM (inactive) | 2.96 µM (inactive) | 4.91 µM (inactive) | 4.04 µM (inactive) | 10.6 µM (inactive) | 3.75 µM (inactive) | 0.0561 µM (active) | 0.0706 µM (active) | 4.18 µM (inactive) | 2.9 µM (inactive) | 3.56 µM (inactive) | 7.53 µM (inactive) | 1.51 µM (inactive) | 2.36 µM (inactive) | 6.15 µM (inactive) | 1.78 µM (inactive) | 3.44 µM (inactive)
